Literature values as cited in patent US8309108B2, “Intranasal compositions” (Archimedes Development Limited, priority 2007, dated 2012).
Where a name gives a salt, the structure may show the parent alone.

Conditions: room temperature

Compound: CN1CCc2cccc3c2C1Cc1ccc(O)c(O)c1-3 (stereo not shown) [apomorphine hydrochloride, 6aβ-aporphine-10,11-diol]
- Saturated aqueous solubility: around 20 mg/ml
